The target in this test is T1, human PNP (Homo sapiens, UniProt P00491).
T1 sequence (P00491 1-289): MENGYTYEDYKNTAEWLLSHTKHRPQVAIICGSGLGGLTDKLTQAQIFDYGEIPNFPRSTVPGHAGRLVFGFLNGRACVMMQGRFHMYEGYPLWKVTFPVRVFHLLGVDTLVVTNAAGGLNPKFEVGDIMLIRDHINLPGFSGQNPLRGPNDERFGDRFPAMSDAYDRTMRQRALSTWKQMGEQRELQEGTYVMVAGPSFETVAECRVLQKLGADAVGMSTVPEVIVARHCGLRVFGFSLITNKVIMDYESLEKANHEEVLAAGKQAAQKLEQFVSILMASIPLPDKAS
In words: Inhibition of human PNP: phosphorolysis of inosine, xanthine oxidase coupled spectrophotometric assay (slow-onset tight-binding analysis). In kind it is biochemical. The following applies: huPNP 1.4 nM, 1 mM inosine, 50 mM KHPO4 pH 7.4, 25° C. How it is done:
Initial (Ki) and equilibrium (Ki*) dissociation constants of DAD-Et-Immucillin-H were determined for human PNP.
Inhibitor dissociation constants for the phosphorolysis of inosine were based on initial and equilibrium reaction rate measurements with varied inhibitor concentrations (Miles, R. W., Tyler, P. C., Furneaux, R. H., Bagdassarian, C. K. and Schramm, V. L. (1998) One-third-the-sites transition state inhibitors for purine nucleoside phosphorylase, Biochemistry 37, 8615-8621; Morrison, J. F. and Walsh, C. T. (1988) The behaviour and significance of slow-binding enzyme inhibitors, Adv. Enzymol. Relat. Areas Mol. Biol. 61, 201-301). […] Hypoxanthine formed by phosphorolysis of inosine was oxidized to uric acid and monitored spectrophotometrically at 293 nm (extinction coefficient for uric acid ε293=12.9 mM^−1cm^−1). Enzyme concentration was adjusted to give absorbance changes not exceeding 1.0 during the time required to characterize initial and final slow-onset inhibition equilibria. […] Ki was determined by fitting the initial rates at different inhibitor concentration to the equation for competitive inhibition: νi=(kcat×S)/(Km(1+I/Ki)+S), where μi is initial reaction rate, kcat is the catalytic turnover number, Km is the Michaelis constant, Ki is the dissociation constant of enzyme-inhibitor complex (EI), I is inhibitor concentration and S is substrate concentration. […]

By Ki is commonly meant the dissociation constant of the complex between target and ligand, obtained from inhibition or displacement.

Where two headings read alike, the source gives them in different places.

`O=c1[nH]cnc2c(CCN3C[C@@H](CO)[C@H](O)C3)c[nH]c12` [Compound 1, (3S,4S)-1-[2-(9-Deaza-hypoxanthin-9-yl)ethyl]-3-hydroxy-4-hydroxymethylpyrrolidine]: the Ki reads like this: (after slow onset equilibrium, read-out: Equilibrium dissociation constant (Ki*)) 0.46 ± 0.05 nM; (initial inhibitor binding step, read-out: Initial dissociation constant (Ki)) 1.6 ± 0.3 nM.

The values are drawn from patent US20090233948A1, “Inhibitors of nucleoside phosphorylases and nucleosidases” (priority 2005, published 2009).
